Source: patent US11028127B2, “Peptides capable of reactivating p53 mutants” (Yeda Research and Development Co. Ltd., priority 2013, dated 2021)
Where two headings read alike, the source gives them in different places. Where no end group is shown, it is not given here.

Legend:
p53 DBD = p53 DBD (Homo sapiens, UniProt P04637); conditions: cited from earlier work
[1] = test system: H1299 cells stably transfected with Mut-p53 (ts) A135V; experiment: qRT-PCR of p53 target genes (p21, PUMA, Mdm2); type: cell-based; conditions: 5 ug/ml, 18 hours, 37° C., relative to non-treated cells; positive control (32° C.) 9-11 fold
Protocol: H1299 cells are p53 null and are widely used for p53 research. H1299 cells stably transfected with Mut-p53 (ts) A135V were used. […] 18 hours later cells were harvested, followed by extraction of RNA, cDNA synthesis and real time PCR analysis. The expression level of 3 representative p53 target genes, p21, PUMA and Mdm2, was examined.
For the in vivo functional screening, several experimental systems were used. One system is based on H1299 cells, which are p53 null and are widely used for p53 research. H1299 cells stably transfected with Mut-p53 (ts) A135V were used. This form of p53 is a temperature sensitive mutant, which has a mutant conformation at 37° C. and a WT conformation at 32° C. […] 18 hours later cells were harvested, followed by extraction of RNA, cDNA synthesis and real time PCR analysis. The expression level of 3 representative p53 target genes was examined; p21, PUMA and Mdm2. Expression of genes in H1299-ts at 37° C. is considered as background level and all results are normalized to it, and also to the GAPDH housekeeping gene. Expression of genes in H1299-ts at 32° C. represents WT p53 conformation and therefore serves as a positive control.
Several tested peptides indeed caused a significant increase in the expression of p21, PUMA and Mdm2. This was the case for pCAP-130, pCAP-135, pCAP-142, pCAP-144 and pCAP-148. […]

[2] = Crystal violet viability assay; type: cell-based; conditions: human, shp53 (Mut-p53 knockdown) subline
Excerpt: FIGS. 15A and 15B are bar graphs illustrating the effect of the various indicated peptides on the viability of breast cancer cells expressing different Mut-p53 isoforms, as determined by crystal violet assay. FIG. 15A: MDA-MB-231 cells expressing Mut-p53 with a mutation at position 280 of the DBD. FIG. 15B: SKBR3 cells expressing Mut-p53 with mutation at position 175 within the DBD. The bar graphs in FIGS. 15A and 15B show for each tested peptide the optical density reads at 595 nm, reflecting the number of cells in the plate after treatment, normalized to the non-treated (NT) samples.
Cells were cultured in 96 wells plates with 2500-4000 cells/well in 0.1 ml and incubated overnight at 37° C. in order to adhere to the plate. Serial dilutions of different peptides (0.5 μg/ml) were added in 0.1 ml aliquots and the plates incubated for additional 48 h at 37° C. Then medium was removed and cell lysis was determined by staining the cells with crystal violet (0.5%) in methanol/water (1:4, v/v), 50 μl each well, for 10 min, followed by 3 washes with PBS. Afterwards, 10% acetic acid (50 μl) was added to each well and shaken for 10 min. Then, automatic plate reading was performed at 595 nm.
Experiments using different cancer cell lines expressing endogenously different p53 mutant isoforms were performed. FIGS. 15A and 15B illustrate two representative experiments performed on MDA-MB-231 (FIG. 15A) and SKBR3 (FIG. 15B) breast cancer cells expressing Mut-p53 with mutations at positions 280 or 175, respectively, within the DNA Binding Domain (DBD). To examine the peptides' specificity for Mut-p53, the control used was such cells with a knockdown of Mut-p53 (shp53).

[3] = test system: SKBR3 cells expressing endogenous R175H p53; conditions: SKBR3 ShCon cells, 5 ug/ml, 18 hours
Protocol: FIG. 16 is a bar graph illustrating the effect of the indicated peptides on activation of Mut-p53 by measuring transactivation of p53 target genes as determined by qRT-PCR. SKBR3 ShCon cells and SKBR3 Shp53 cells knocked down for p53 expression were used. The cells were plated in 12-well dishes and the indicated peptides were added directly to the medium at a concentration of 5 ug/ml. 18 hours later cells were harvested, followed by qRT-PCR analysis. Expression level of p21, PUMA and Mdm2 was evaluated. FIG. 16 illustrates the relative fold induction of transcription of the tested genes in the various samples relative to their transcription level in non-treated cells. GAPDH mRNA was measured in parallel as a control.
RNA was obtained using Macherey-Nagel NucleoSpin RNA II Kit on cells pellet according to the manufacturer's protocol. Aliquots of 0.4-1 μg were reverse transcribed using Bio-RT 2000 (Bio-Lab) and random hexamer primers. Quantitative real-time polymerase chain reaction (QRT-PCR) was performed on an ABI 7300 instrument (Applied Biosystems) using PerfeCTa SYBR Green FastMix ROX (Quanta). RT-PCR primers used are presented in Table 1 (primers sequences are presented 5′ to 3′).
The tested peptides were further tested for their effect on p53 target gene expression in SKBR3 cells expressing endogenous R175H p53. […] In essence, these cells were plated in 12-well dishes; the indicated peptides were added directly to the medium at a concentration of 5 ug/ml. 18 hours later cells were harvested, followed by qRT-PCR analysis. Expression level of p21, PUMA and Mdm2 was evaluated. Expression of those genes in non-treated cells is considered background and all results were normalized to it, as well as to GAPDH.

R175H p53 = molecular target: T1, R175H p53 (Homo sapiens, UniProt P04637, R175H); experiment: TK-RGC-luc luciferase reporter assay in H1299 p53−/− cells; type: cell-based; conditions: peptides added 24 hours after transfection, read at 48 hours
T1 construct: a hot spot full length mutant p53 Mut-p53 R175H (R175H p53); expressed in transfected cells; host or cells: H1299 p53-/- cells, transient transfection
Protocol: (§1) FIG. 12 is a bar graph illustrating the relative luciferase activity (cLuc/gLuc) as measured in the various tested samples. Transient transfection of H1299 p53^−/− cells was performed with plasmids expressing WT p53, R175H p53, R249S p53 or empty vector as control, together with TK-RGC-luc, where luciferase expression is under control of a tandem array of multiple p53-responsive elements. 24 hours after transfection, cells were treated with the test peptides. 48 hours after transfection, a sample of the culture medium was taken for bioluminescence measurements.
(§2) The oligonucleotide (RGC-W) that has the sequence 5′-[…]-3′ (SEQ ID NO:362), and the oligonucleotide mutant RGC oligonucleotide (RGC-M) that has the sequence 5′-[…]-3′ (SEQ ID NO:363), are both derived from Kern et al. (Kern, S. E., et al., Identification of p53 as a sequence-specific DNA-binding protein. Science, 1991. 252(5013): p. 1708-11), and serve as a consensus binding sites for WT p53.
(§3) These motifs were cloned into the KPN and Eco53IK sites in pCLuc Mini-TK 2 Vector (NEB, Cat No. N0324S ). The Luciferase construct was used to assess transcriptional activation of p53 in test cells.
(§4) H1299 p53-null cells were cultured overnight and then transfected with the luciferase constructs using MaxFect Transfection Agent (Mediatech) according to the manufacturer's protocol. Prior to the transfection, cell medium was exchanged to OPTI-MEM.
(§5) The cells were treated with different peptides 24 hours after transfection. After additional 24 hours, growth medium was collected to 96 black plates: 40 μl for Cluc assay, and 20 μl for Gluc assay. Assay was performed using Turner BioSystems Modulus Microplate. Value was calculated by Cluc/gluc/NT (non-treated cells).
(§6) As additional screening strategy used to identify reactivating peptides was performed in vivo and is based on a reporter gene assay. It measures p53 transcriptional activity by quantifying the activity of a reporter gene, placed under the control of a promoter containing 17 repeats of a p53 consensus binding site (RGC). The luciferase assay is performed on living cells and therefore provides an indication on the effect of test peptides on Mut-p53 function in the context of intact cells.
(§7) For the in vivo luciferase based screening, H1299 cells were used. Transient transfection of these p53^−/− cells was performed with vectors expressing WT p53, R175H p53, R249S p53 or empty vector as control (Suad, O., et al., Structural basis of restoring sequence-specific DNA binding and transactivation to mutant p53 by suppressor mutations. J. Mol. Biol., 2009. 385(1): p. 249-65). Cells were also co-transfected with TK-RGC-luc (CAT. No. NEB, N0324S). 24 hours after transfection, cells were treated with the test peptides. […]

R249S p53 = molecular target: T2, R249S p53 (Homo sapiens, UniProt P04637, R249S); experiment: as above; type: cell-based; conditions: peptides added 24 hours after transfection, read at 48 hours
T2 construct: expressed in transfected cells; host or cells: H1299 p53-/- cells, transient transfection
Protocol: as §1, §2, §3, §4, §5, §6, §7

Mut-p53 (R175H p53) = molecular target: T3, Mut-p53 (R175H p53) (Homo sapiens, UniProt P04637, R175H); experiment: p53/DNA binding ELISA kit (R&D), binding to p53-RE DNA; type: biochemical; conditions: H1299-R175H p53 cell extracts, vs background (NT)
T3 construct: a hot spot full length mutant p53 Mut-p53 R175H (R175H p53); expressed in transfected cells; host or cells: H1299 (p53-null) cells stably overexpressing R175H p53; cell extract
Excerpt: A commercial p53/DNA binding kit (R&D) was used, according to manufacturer instructions. Briefly, 96 well plates were coated with anti-p53 antibody overnight. Cell extracts containing p53 were reacted with an oligonucleotide that contains a p53 consensus binding site, labeled with biotin, in the presence or absence (NT) of test peptides. WT p53 is expected to bind this DNA binding site as well as to the antibody coating the test wells of the plate. Excess p53 and oligos are washed away and streptavidin-HRP is used to quantify the amount of oligos in the well, which is proportional to the DNA bound by p53. TMB assay was performed to determine HRP levels (450 nm). The results are presented as relative absorbance (at 450 nm) (Y-Axis) of each tested sample. MCF7 and the H1299-Mut-p53 (ts) A135V cells serve as positive controls for WT p53.
For these experiments, a commercial p53/DNA binding kit of “R&D” (Cat-DYC1355-5 Lot-1273366FA) was used, in accordance with manufacturer guide lines. Briefly, 96 well plates are coated with anti-p53 antibody overnight. Cell extracts containing p53 are reacted with an oligonucleotide that contains a p53 consensus binding site (provided in the kit), labeled with biotin, in the presence or absenc.
e (NT) of test peptides. WT p53 is expected to bind this DNA binding site as well as to the antibody coating the test wells of the plate. Excess p53 and oligos were washed away and streptavidin-HRP was used to quantify the amount of oligos in the well, which is proportional to the DNA bound by p53. TMB assay was performed to determine HRP (ES001-1L-K) levels (450 nm).
To measure the effect of the tested peptides on DNA binding of Mut-p53, a commercial ELISA kit, (R&D Systems DYC1355-5, Lot-1273366FA), was used as a high-throughput assay to quantify p53 activation. This kit uses a 96-well plate format. The kit was used according to manufacturer's instructions. Wells were coated with anti-p53 antibody overnight. Cell extracts containing p53 were reacted with a biotin labeled oligonucleotide containing a p53 consensus binding site (included in the kit). WT p53 is expected to bind this oligo as well as the antibody coating the wells. Excess p53 and oligo were washed away in wash buffer (0.05% Tween 20 in PBS, pH 7.2-7.4; R&D Systems, Catalog #WA126). Then, streptavidin-HRP (R&D Systems, Part 890803, provided in the kit) was added for 15-45 min to quantify the amount of oligo in the well, which is proportional to the DNA bound by p53. If the addition of a peptide to Mut-p53 extracts increases ELISA reading compared to background, this peptide is considered as functionally effective and may be selected for further analysis. […] As with the conformational screening, MCF7 and the H1299-Mut-p53 (ts) A135V cells served as positive controls for WT p53. Extracts were added to the wells coated with αp53-Ab, and after several washing steps, streptavidin-HRP was added for 1 hour, and then plates were washed again and TMB (substrate to HRP) assay was performed.

## COc1ccc(/C=C/c2nc(NCCCN(C)C)c3ccccc3n2)cc1 [CP-31398]
p53 DBD
  binding to the p53 DBD by NMR: failed to detect any binding

## GGGGGGGGGRRRRRRR [pCAP-76, negative control peptide]
[1]
  induction of transcription of p53 target genes p21, PUMA and Mdm2: did not cause induction of p53 targets

## IRGRIIRRRRRRRRRR [pCAP-155]
[2]; MDA-MB-231 shp53 (Mut-p53 knockdown) breast cancer cells, read-out: reduction in viability, MDA-MB-231 shp53 cells
  cytotoxicity at 48 h: 30 to 40%
[2]; SKBR3 shp53 (Mut-p53 knockdown) breast cancer cells, read-out: reduction in viability, SKBR3 shp53 cells
  cytotoxicity at 48 h: 30 to 40%
[3]
  transactivation of p53 target genes (p21, PUMA, Mdm2): among the highest transactivation levels

## SFILFIRRGRLGRRRRRRRRR [pCAP-144]
[3]
  transactivation of p53 target genes (p21, PUMA, Mdm2): among the highest transactivation levels

## TRILCIVRKKRRQRRRRGDR [pCAP-75]
R175H p53
  transcription from TK-RGC-luc in the presence of R175H p53: induce transcription from TK-RGC-luc
R249S p53
  transcription from TK-RGC-luc in the presence of R249S p53: induce transcription from TK-RGC-luc
Mut-p53 (R175H p53)
  binding of H1299-R175H p53 extracts to p53-RE DNA: elevate the binding of H1299-R175H p53 extracts to p53-RE DNA

## WNHHHSTPHPRRRRRRRRRR [pCAP-148]
[3]
  transactivation of p53 target genes (p21, PUMA, Mdm2): among the highest transactivation levels
